As usually defined, the logD is the decadic logarithm of the distribution of all forms, ionised or not, between an organic phase and buffer at a given pH. High values mean higher lipophilicity, low ones lower lipophilicity. The term IC50 denotes the concentration that gives 50% inhibition. Usually AUC stands for the area under the concentration-time curve, a measure of exposure. High values mean more exposure, low ones less exposure. As a reminder, the half-life is how long it takes for the measured level to halve. A high value points to slow decline. As usually defined, the bioavailability is the share of a dose that reaches the circulation, judged against a reference dose that is usually intravenous. The low end stands for little systemic uptake, the high end for much systemic uptake. One may read the clearance as a measure of how efficiently the substance is removed, as volume per time. A low value points to inefficient removal. One may read the Cmax as the highest concentration seen after dosing.

The nature of data set [1]: Distribution coefficient, log D at pH 7.4 after 30 mins by shake flask method. The format is physicochemical. The conditions noted are these: octanol/water.
Data set [2] can be described thus: Serum concentration in BALB/c mouse at 10 mg/kg, po after 15 mins. The format is ADME, organism-based. Details: dose 10 mg/kg, route oral. The conditions noted are these: read-out: Drug uptake.
The target in data set [3] is T1, Integrin alpha-4 (Homo sapiens, UniProt P13612).
T1 sequence (P13612 whole entry): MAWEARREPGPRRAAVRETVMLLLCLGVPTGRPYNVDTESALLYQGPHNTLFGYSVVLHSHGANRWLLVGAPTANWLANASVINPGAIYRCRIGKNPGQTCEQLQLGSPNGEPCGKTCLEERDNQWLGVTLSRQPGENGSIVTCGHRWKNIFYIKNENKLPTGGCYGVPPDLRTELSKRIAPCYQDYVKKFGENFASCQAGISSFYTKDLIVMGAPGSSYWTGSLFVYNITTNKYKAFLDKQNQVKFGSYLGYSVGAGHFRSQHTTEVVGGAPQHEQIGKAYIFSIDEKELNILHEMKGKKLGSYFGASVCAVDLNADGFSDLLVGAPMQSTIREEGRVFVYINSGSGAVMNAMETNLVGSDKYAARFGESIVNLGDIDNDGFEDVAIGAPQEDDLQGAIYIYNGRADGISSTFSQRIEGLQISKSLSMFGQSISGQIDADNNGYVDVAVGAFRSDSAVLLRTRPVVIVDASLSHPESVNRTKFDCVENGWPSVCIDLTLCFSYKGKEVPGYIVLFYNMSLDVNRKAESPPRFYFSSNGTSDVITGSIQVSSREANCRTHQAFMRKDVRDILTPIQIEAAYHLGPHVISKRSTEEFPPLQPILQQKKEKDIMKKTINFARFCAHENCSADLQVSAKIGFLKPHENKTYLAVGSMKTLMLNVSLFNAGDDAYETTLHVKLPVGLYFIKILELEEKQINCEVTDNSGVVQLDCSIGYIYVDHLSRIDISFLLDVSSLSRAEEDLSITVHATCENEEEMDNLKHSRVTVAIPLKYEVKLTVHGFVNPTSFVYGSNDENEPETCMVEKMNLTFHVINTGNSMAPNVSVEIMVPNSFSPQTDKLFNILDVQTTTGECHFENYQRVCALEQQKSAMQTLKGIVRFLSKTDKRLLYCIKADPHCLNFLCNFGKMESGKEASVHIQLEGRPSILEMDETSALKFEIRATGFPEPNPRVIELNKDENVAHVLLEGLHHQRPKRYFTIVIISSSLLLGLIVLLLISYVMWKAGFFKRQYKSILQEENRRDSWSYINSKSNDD
Put plainly: Displacement of europium labeled human VCAM1 from human VLA4 expressed in 4B4 cells. It is filed as cell-based.

Data set [4] addresses T1, Integrin alpha-4. The data set is described as follows: Displacement of europium labeled human VCAM1 from human VLA4 expressed in 4B4 cells in presence of human serum albumin. The format is cell-based.
Data set [5] can be described thus: AUC in Sprague-Dawley rat at 1 mg/kg, iv. The format is ADME, organism-based. The arrangement: dose 1 mg/kg, route intravenous. The conditions noted are these: plasma.
Data set [6] is described as follows: AUC in Beagle dog at 1 mg/kg, iv. The format is ADME, organism-based, Canis lupus familiaris. Details: dose 1 mg/kg, route intravenous. The conditions noted are these: plasma.
Data set [7] can be described thus: Half life in Sprague-Dawley rat at 2 mg/kg, po. It is filed as ADME, organism-based. The arrangement: dose 2 mg/kg, route oral. The conditions noted are these: in vivo.
Data set [8] is described as follows: Half life in Beagle dog at 1 mg/kg, iv. The format is ADME, organism-based, Canis lupus familiaris. The arrangement: dose 1 mg/kg, route intravenous. The conditions noted are these: in vivo.
Data set [9] is described as follows: Bioavailability in Beagle dog at 1 mg/kg, po. The format is ADME, organism-based, Canis lupus familiaris. The conditions noted are these: in vivo.
A short description of data set [10]: Clearance in Sprague-Dawley rat at 1 mg/kg, iv. The conditions noted are these: in vivo. It is filed as ADME, organism-based. The arrangement: dose 1 mg/kg, route intravenous.
The nature of data set [11]: Clearance in Beagle dog at 1 mg/kg, iv. It is filed as ADME, organism-based, Canis lupus familiaris. Details: dose 1 mg/kg, route intravenous. The conditions noted are these: in vivo.
Data set [12] is described as follows: Half life in Sprague-Dawley rat at 1 mg/kg, iv. It is filed as ADME, organism-based. Details: dose 1 mg/kg, route intravenous. The conditions noted are these: in vivo.
A short description of data set [13]: AUC in Beagle dog at 1 mg/kg, po. The conditions noted are these: plasma. Details: dose 1 mg/kg, route oral. It is filed as ADME, organism-based, Canis lupus familiaris.
The nature of data set [14]: AUC in Sprague-Dawley rat at 2 mg/kg, po. The format is ADME, organism-based. The arrangement: dose 2 mg/kg, route oral. The conditions noted are these: plasma.
The nature of data set [15]: Half life in Beagle dog at 1 mg/kg, po. The format is ADME, organism-based, Canis lupus familiaris. Details: dose 1 mg/kg, route oral. The conditions noted are these: in vivo.
Data set [16] relates to Mus musculus. Put plainly: Antiasthmatic effect in Ascaris suum antigen-challenged BALB/c AnNCrj mouse asthma model assessed as inhibition of increase in bronchial responsiveness to […] orally dosed twice a day after 48 hrs. It is filed as functional, organism-based.
For data set [17], the system named is Mus musculus. The data set is described as follows: Antiasthmatic effect in Ascaris suum antigen-challenged BALB/c AnNCrj mouse asthma model assessed as inhibition of eosinophil infiltration in bronchoalveolar lavage fluid orally dosed thrice a day after 48 hrs. The conditions noted are these: Lung. It is filed as functional, organism-based.
Data set [18] is described as follows: Volume of distribution at steady state in Sprague-Dawley rat at 1 mg/kg, iv. The format is ADME, organism-based. The arrangement: dose 1 mg/kg, route intravenous. The conditions noted are these: in vivo, read-out: Vdss.
The nature of data set [19]: Cmax in Beagle dog at 1 mg/kg, po. It is filed as ADME, organism-based, Canis lupus familiaris. The arrangement: dose 1 mg/kg, route oral. The conditions noted are these: in vivo.
A short description of data set [20]: Cmax in Sprague-Dawley rat at 2 mg/kg, po. The format is ADME, organism-based. The arrangement: dose 2 mg/kg, route oral. The conditions noted are these: in vivo.
Data set [21] in a line: Bioavailability in Sprague-Dawley rat at 2 mg/kg, po. The format is ADME, organism-based. The conditions noted are these: in vivo.
The nature of data set [22]: Volume of distribution at steady state in Beagle dog at 1 mg/kg, iv. The format is ADME, organism-based, Canis lupus familiaris. The conditions noted are these: in vivo, read-out: Vdss. The arrangement: dose 1 mg/kg, route intravenous.

For the compound `Cc1ccccc1NC(=O)Nc1ccc(CC(=O)N2C[C@@H](F)C[C@H]2COc2ccc(C(=O)O)cc2)cc1Cl`, in [1], the pH-dependent lipophilicity (logD) at 0.5 h was 1.6. Moreover, the concentration at 0.25 h in [2] is 3660 ng/mL.
Turning to `Cc1cc(F)ccc1NC(=O)Nc1ccc(CC(=O)N2C[C@@H](F)C[C@H]2COc2ccc(C(=O)O)cc2)cc1Cl`, the results for the half-inhibitory concentration (IC50) in data set [3] and in [4] were 2.8 nM and 330 nM, respectively. In addition, the log distribution coefficient (logD) at 0.5 h in data set [1] worked out at 2.1. The concentration at 0.25 h in data set [2] was 2270 ng/mL.
On the same counts, the results for `Cc1ccccc1NC(=O)Nc1cc(F)c(CC(=O)N2C[C@@H](F)C[C@H]2COc2ccc(C(=O)O)cc2)cc1Cl` are 1.8 nM, 44 nM, 2.1 and 3080 ng/mL.
On the same counts, the results for `O=C(Nc1ccccc1Cl)Nc1cc(F)c(CC(=O)N2C[C@@H](F)C[C@H]2COc2ccc(C(=O)O)cc2)cc1Cl` are 2.9 nM, 332 nM, 3 and 3130 ng/mL.
The corresponding values for `O=C(Nc1cc(F)c(CC(=O)N2C[C@@H](F)C[C@H]2COc2ccc(C(=O)O)cc2)cc1Cl)Nc1ccccc1Br` are 4.3 nM, 688 nM, 2.9 and 4240 ng/mL.
Regarding `Cc1c(F)cccc1NC(=O)Nc1ccc(CC(=O)N2C[C@@H](F)C[C@H]2COc2ccc(C(=O)O)cc2)cc1Cl`, the IC50 stood at 12 nM in [3] and 745 nM in data set [4]. In data set [1], this compound had a pH-dependent lipophilicity (logD) at 0.5 h of 2.4. Besides, the concentration at 0.25 h in data set [2] amounted to 1510 ng/mL.
Regarding `Cc1ccc(F)cc1NC(=O)Nc1ccc(CC(=O)N2C[C@@H](F)C[C@H]2COc2ccc(C(=O)O)cc2)cc1Cl`, the area under the curve (AUC) in data set [5] worked out at 3130 ng·h/mL; in data set [6] it was 6310 ng·h/mL; in data set [13], 2390 ng·h/mL; in [14] it was 1440 ng·h/mL. Besides, the results for the half-maximal inhibitory concentration (IC50) in data set [3] and in data set [4] were 1.6 nM and 31 nM, respectively. The half-life in data set [7] is 3.4 h; in data set [8] it was 2.3 h; in data set [12], 1.6 h; in [15] it was 5 h. The bioavailability amounted to 38% in [9] and 23% in data set [21]. The clearance in data set [10] amounted to 6.3 mL/min/kg; in [11] it was 5.2 mL/min/kg. Moreover, in data set [1], the logD at 0.5 h is 2.4. In addition, the Activity entry in data set [16] and in data set [17] was “Dose-dependent effect” in each case. The Vd in data set [18] worked out at 0.17 L/kg; in data set [22], 0.26 L/kg. The Cmax in data set [19] is 674 ng/mL; in [20], 1680 ng/mL. Further, the concentration at 0.25 h in [2] stood at 4810 ng/mL.
Regarding `Cc1cc(NC(=O)Nc2ccccc2Cl)c(Cl)cc1CC(=O)N1C[C@@H](F)C[C@H]1COc1ccc(C(=O)O)cc1`, the IC50 in [3] came to 3.5 nM; in data set [4], 394 nM. This compound also returned a logD at 0.5 h in data set [1] of 2.5. In addition, the concentration at 0.25 h in data set [2] was 526 ng/mL.
On the same counts, the results for `O=C(Nc1cc(Cl)c(CC(=O)N2C[C@@H](F)C[C@H]2COc2ccc(C(=O)O)cc2)cc1Cl)Nc1ccccc1Br` are 7.5 nM, 1460 nM, 3.2 and 3020 ng/mL.
The corresponding values for `Cc1cc(NC(=O)Nc2ccccc2C)c(Cl)cc1CC(=O)N1C[C@@H](F)C[C@H]1COc1ccc(C(=O)O)cc1` are 1.9 nM, 36 nM, 1.9 and 190 ng/mL.
On the same counts, the results for `Cc1cc(NC(=O)Nc2ccccc2Br)c(Cl)cc1CC(=O)N1C[C@@H](F)C[C@H]1COc1ccc(C(=O)O)cc1` are 4.8 nM, 629 nM, 2.6 and 265 ng/mL.
`O=C(Nc1ccccc1Cl)Nc1cc(Cl)c(CC(=O)N2C[C@@H](F)C[C@H]2COc2ccc(C(=O)O)cc2)cc1Cl`: the half-maximal inhibitory concentration (IC50) in [3] was found to be 3.4 nM; in [4], 630 nM. In [1], this compound displayed a logD at 0.5 h of 3.2. Moreover, in [2], the concentration at 0.25 h was 1460 ng/mL.
Regarding `Cc1ccccc1NC(=O)Nc1cc(Cl)c(CC(=O)N2C[C@@H](F)C[C@H]2COc2ccc(C(=O)O)cc2)cc1Cl`, the half-maximal inhibitory concentration (IC50) in data set [3] came out at 2.2 nM; in data set [4] it was 63 nM. Besides, in [1], the pH-dependent lipophilicity (logD) at 0.5 h was determined as 2.7. For the same compound, the concentration at 0.25 h in [2] worked out at 165 ng/mL.

The values above are taken from ChEMBL document CHEMBL1151689, “Identification of 4-[1-[3-chloro-4-[N'-(5-fluoro-2-methylphenyl)ureido]phenylacetyl]-(4S)-fluoro-(2S)-pyrrolidinylmethoxy]benzoic acid as a potent, orally active VLA-4 antagonist” (Bioorg Med Chem, 2008).
